{
  "source": "patent US6676954B2",
  "about": "“Controlled release compositions” (Rohm and Haas Company, priority 2000, dated 2004)",
  "key": {"[1]": {"experiment": "Salt water (synthetic-seawater) leaching test: 14C-labelled ITA remaining in the marine paint film", "assay_type": "physicochemical", "procedure": "The efficacy of the 3-isothiazolone/carbon-based adsorbent compositions of the present invention in a paint film was determined by a salt water (synthetic-seawater) leaching evaluation. An appropriate amount of 4,5-dichloro-2-n-octyl-3-isothiazolone (ITA), together with carbon-based adsorbent (C-1, C-2, C-3):\nwas added to 10 g of a marine antifouling paint formulation (2 different paint types, P-1 and P-2, see below) in a milling jar to provide a final 3-isothiazolone concentration of 2% based on total combined weight of the 3-isothiazolone/carbon-based adsorbent/paint formulation mixture. Paint films were then drawn on silanized microslides to a thickness of 0.076 mm (0.003 inch) for the rosin-based paint formulation (P-1) and to a thickness of 0.178 mm (0.007 inch) for the polishing type marine antifouling paint (P-2). The paint films were dried for 2 days and then the microslides were placed in a synthetic-seawater fish tank for 1 month. The synthetic-seawater was periodically circulated through a filter cartridge containing activated carbon and Celex™ 20 chelating agent (to remove 3-isothiazolone and copper ions). At various times the paint slides were removed and analyzed. The amount of 4,5-dichloro-2-n-octyl-3-isothiazolone remaining in the paint film after exposure to synthetic-seawater was determined by radioactive labeling (^14C-labeled 4,5-dichloro-2-n-octyl-3-isothiazolone).\nThe salt water leaching test and radioactive labeling measurements were conducted as follows: a small amount of ^14C-4,5-dichloro-2-n-octyl-3-isothiazolone was incorporated with ^12C-4,5-dichloro-2-n-octyl-3-isothiazolone into paint and the radioactivity of trace ^14C-molecules was measured by a Phosphorimager SI spectrometer (manufactured by Molecular Dynamics Co.); a ratio of 4×10^−5 for ^14C-4,5-dichloro-2-n-octyl-3-isothiazolone to every gram of ^12C-4,5-dichloro-2-n-octyl-3-isothiazolone was used.\nThe prepared slides were placed in synthetic-seawater prepared as follows: the following ingredients (20 liters deionized water, 1350 g NaCl, 225 g MgCl2.6H2O, and 321.6 g Na2B4O7.10H2O in 6 liters deionized water) were combined and adjusted to a pH of 8.2 with 1.0 M HCl solution, after which the total volume was made up to 30 liters with additional deionized water.\nThe solid compositions were then evaluated using (1) the salt water leaching test as described in Example 3 and the relative release test (5-day) described in Example 2. A summary of the performance of the three inorganic carriers (diatomaceous earth, aluminosilicate and magnesium silicate) relative to the carbon-based adsorbent (activated carbon) composition of the present invention is presented in Table 4."}, "[2]": {"experiment": "Relative release test: 3-isothiazolone released from the solid composition into water with 0.3% sodium diethylhexylsulfosuccinate (HPLC)", "assay_type": "physicochemical", "conditions": "no paint", "procedure": "The amount of 3-isothiazolone compound released from each controlled release composition was determined according to the following general procedure. A weighed amount of controlled release composition (0.014 g, prepared as described in Example 1) was placed in a 250 mL sample jar. To the jar was then added 200 mL of water containing 0.3% of sodium diethylhexylsulfosuccinate. The solution was then gently stirred to ensure no foam was formed. Aliquots (0.5 mL) were taken at 5 and 24 hours and transferred to a microcentrifuge tube. Each aliquot was then centrifuged at 14,000 rpm for 3 minutes. The supernatant was then removed and analyzed by HPLC (high pressure liquid chromatography) for the amount of the 3-isothiazolone compound. The microcentrifuge tube was then washed with 0.5 mL of water containing 0.3% of sodium diethylhexylsulfosuccinate and the wash liquid added to the sample jar. This ensured that none of the particles removed during sampling was lost and that the volume in the jar remained constant.\nThe solid compositions were then evaluated using (1) the salt water leaching test as described in Example 3 and the relative release test (5-day) described in Example 2. […]"}, "[3]": {"conditions": "paint P-1 (rosin-based), 2% ITA, synthetic seawater"}, "[4]": {"conditions": "paint P-2 (polishing type), 2% ITA, synthetic seawater"}},
  "note": "Marks after values point to notes of the source that are not given here.",
  "data": [
    {"smiles": "CCCCCCCCn1sc(Cl)c(Cl)c1=O", "note": "[None, 4,5-dichloro-2-n-octyl-3-isothiazolone]", "values": [
      {"measurement": "% ITA Retained in Paint Film, 0 Days", "setting": "[1]; [3]", "result": 100, "unit": "%"},
      {"measurement": "% ITA Retained in Paint Film, 7 Days", "setting": "[1]; [3]", "result": 82, "unit": "%"},
      {"measurement": "% ITA Retained in Paint Film, 14 Days (interpolated)", "setting": "[1]; paint P-1 (rosin-based), 2% ITA, synthetic seawater, 14 days, values in are interpolated", "result": "(78) %"},
      {"measurement": "% ITA Retained in Paint Film, 30 Days", "setting": "[1]; [3]", "result": 70, "unit": "%"},
      {"measurement": "Salt Water Leaching Test (28 Days) (% Retained in Paint Film)", "setting": "[1]; paint P-1, carrier loaded with 30% ITA, 28 days in synthetic seawater", "result": 64, "unit": "%"},
      {"measurement": "% ITA Retained in Paint Film, 0 Days", "setting": "[1]; [4]", "result": 100, "unit": "%"},
      {"measurement": "% ITA Retained in Paint Film, 7 Days", "setting": "[1]; [4]", "result": "31-44* %"},
      {"measurement": "% ITA Retained in Paint Film, 21 Days", "setting": "[1]; paint P-2 (polishing type), 2% ITA, synthetic seawater, 21 days", "result": 18, "unit": "%"},
      {"measurement": "% ITA Retained in Paint Film, 30 Days", "setting": "[1]; [4]", "result": 13, "unit": "%"},
      {"measurement": "% 4,5-dichloro-2-n-octyl-3-isothiazolone retained (5-day surfactant solution)", "setting": "[2]; 5-day release test, retention as stated in the text", "result": 0, "unit": "%"},
      {"measurement": "5 Day % Released", "setting": "[2]; carrier loaded with 30% ITA, 5-day relative release test in surfactant solution", "result": 100, "unit": "%"}
    ]}
  ]
}
